Experimental findings from PubChem BioAssay AID1626 (SRMLSC, 2009) are described below.

For orientation: IC50 means the concentration that gives 50% inhibition. As a reminder, the IC90 is the concentration at which the effect reaches the 90% level. In general, CC50 refers to the concentration at which the toxic effect on the cells reaches its halfway point.

The assay concerns M. tuberculosis H37Rv growth inhibition. Put plainly: M. tuberculosis H37Rv growth inhibitors, H37Rv strain (AID 1626). As to conditions: for IC90: measured here: IC90 against H37Rv; for CC50: measured here: Vero cell cytotoxicity.

For the compound `COc1cc2nc(C3CCC3)nc(N3CCN(c4ccccc4OC)CC3)c2cc1OC`, the IC50 was 3.9 µM, the IC90 is 6.52 µM and the CC50 is greater than 40 µM.

`CCS(=O)(=O)Nc1cccc(-c2cc(-c3ccccc3)c3cc(C)ccc3n2)c1`: the IC50 was 5.97 µM, the IC90 is 11.1 µM and the CC50 was greater than 40 µM.

For `CC(C)c1ccc(CNC(=O)CSCC(=O)Nc2ccc3ccccc3c2)cc1`, the IC50 was 18 µM and the IC90 was greater than 100 µM.

`CSc1ccc2c(c1)C(N1CCN(C)CC1)Cc1ccccc1S2` (stereo not drawn): the IC50 is 8.54 µM, the IC90 came out at 10.9 µM and the CC50 amounted to 20.9 µM.

Consider `CCc1ccc(/C=C/C(=O)C2C(=O)c3ccccc3C2=O)cc1`, for which the IC50 is 1.76 µM, the IC90 came to 2.92 µM and the CC50 is greater than 40 µM.

As to `C=CCn1c(O)c(C(C)=Nc2ccc(C(=O)OCC)cc2)c(=O)[nH]c1=O`, the IC50 was 14 µM and the IC90 was greater than 100 µM.

As to `O=C(O)C1CCCCC1C(=O)Nc1ccc2c(c1)CCC2` (stereo not drawn), the IC50 is 73.5 µM and the IC90 is greater than 100 µM.

On to `CCOC(=O)c1ccc(NC(=O)CSc2ccc(-c3cccnc3)nn2)cc1`, for which the IC50 was 29.1 µM, the IC90 is greater than 100 µM and the CC50 is greater than 40 µM.

`Cc1ccc(NC(=O)CCn2cnc3ccccc3c2=O)cc1Cl` gave an IC90 greater than 100 µM.

In the case of `CCOC(=O)c1c(NC(=O)C2COc3ccccc3O2)sc2c1CC(C)(C)NC2(C)C` (stereo not drawn), the IC50 was 12.6 µM and the IC90 was 13.7 µM.

Take `CCCc1cc(C(=O)Nc2nccs2)cs1`: the IC50 was 17.7 µM and the IC90 was greater than 100 µM.

The compound `Cc1ccc(-c2nn(-c3ccccc3)cc2C=O)o1` had a CC50 greater than 40 µM.

Take `O=C(CNC1CCCC1)Nc1ccc(N2CCCCCC2)cc1`: the IC50 was 8.04 µM, the IC90 amounted to 10.2 µM and the CC50 worked out at 37.7 µM.

As to `COC(=O)C1C2c3ccccc3OC1(C)N=c1s/c(=C/c3cnn(C)c3C)c(=O)n12` (stereo not drawn), the IC50 is 2.43 µM and the IC90 is 17.7 µM.

Take `C=C1C(=O)[C@@]23[C@H](O)C[C@@H]4C(C)(C)CC[C@H](O)[C@@]4(C)[C@@H]2CC[C@@H]1[C@H]3O`: the IC50 is 8.62 µM, the IC90 is 14.6 µM and the CC50 was found to be 5.78 µM.

`Cc1ccc(NC(=O)c2ccc([N+](=O)[O-])o2)cc1C`: the IC50 was less than 0.195 µM, the IC90 was 8.63 µM and the CC50 is greater than 40 µM.

`CN(C)CCNC(=O)/C(=C/c1ccc(-c2ccc(Cl)cc2Cl)o1)NC(=O)c1ccccc1`: the IC50 was 10.5 µM, the IC90 stood at 11.6 µM and the CC50 came to 10.2 µM.

With `O=C(NCc1ccc(F)cc1)C(=O)Nc1nc(C23CC4CC(CC(C4)C2)C3)cs1`, the CC50 was 21.4 µM.

Turning to `C(=C\c1nc(N2CCCCCC2)c2ccccc2n1)/c1ccccc1`, the IC50 was 8.43 µM, the IC90 stood at 11.1 µM and the CC50 was determined as 37.5 µM.

On to `COc1ccc(C(=O)CCNc2ccc(C)c(Cl)c2)cc1`, for which the IC50 was 58.9 µM and the IC90 was greater than 100 µM.

As for `COc1ccc(Cl)cc1NC(=O)C(C)N1CCN(C/C=C/c2ccccc2)CC1` (stereo not drawn), the IC50 is 12.3 µM and the IC90 is 13.3 µM.

In the case of `COc1ccc(C[C@H]2CN3C(=NC[C@@H]3Cc3ccc(O)cc3)N2CCNC(=O)c2ccc(C)c(Br)c2)cc1`, the IC50 is 4.4 µM, the 90% effect concentration (IC90) came out at 6.16 µM and the half-maximal cytotoxic concentration (CC50) was greater than 40 µM.

`CC(C)CCN1C(=O)c2ccc(-c3nc4ccccc4c(=O)o3)cc2C1=O`: the IC50 was 5.26 µM and the IC90 was greater than 100 µM.

With `COC(=O)c1cc(/C=C/c2ccccc2)on1`, the 50% inhibitory concentration (IC50) was 1.33 µM and the IC90 was greater than 100 µM.

As to `CCNc1nc(NCC)nc(-n2nc(C)cc2C)n1`, the IC50 was 5.04 µM and the IC90 worked out at 18.4 µM.

With `N=C1SC(c2ccccc2)C(=O)N1c1ncc(Cc2ccccc2Cl)s1` (stereo not drawn), the IC50 is 71 µM, the IC90 was greater than 100 µM and the CC50 was 29.5 µM.

With `CCN(CC)c1ccc(CNc2nc3ccccc3n2CCN2CCCCC2)cc1`, the IC50 was 36.7 µM, the 90% effect concentration (IC90) was 43.8 µM and the CC50 was greater than 40 µM.

As to `CC(C)(c1ccccc1)c1ccc(OCC(O)CNC2CCN(Cc3ccccc3)CC2)cc1` (stereo not drawn), the IC50 is 4.53 µM, the IC90 worked out at 6.06 µM and the CC50 came to 6.22 µM.

Take `OCCc1ccc(-c2ccc(Cl)cc2)o1`: the IC50 was 23.5 µM and the IC90 was greater than 100 µM.

For `Cc1ccsc1C(=O)Nc1nc2ccccc2[nH]1`, the IC50 is 20.4 µM, the IC90 is greater than 100 µM and the CC50 stood at 25.3 µM.

Regarding `COc1ccc(-c2nsc(SCC(=O)NCC3CCCO3)n2)cc1` (stereo not drawn), the IC50 is 2.25 µM and the IC90 amounted to 5.2 µM.

With `Cc1ccc(NC(=O)/C=C/c2ccc([N+](=O)[O-])s2)cc1`, the IC50 was 45.9 µM, the IC90 is greater than 100 µM and the CC50 is greater than 40 µM.

Consider `c1ccc(Nc2nc(-c3ccccn3)cs2)cc1`, for which the IC50 is 0.376 µM, the IC90 is 0.854 µM and the CC50 was greater than 40 µM.

`O=C(Nc1nnc(-c2cccnc2)o1)c1cccc(Cl)c1`: the IC50 was 3.27 µM, the IC90 is greater than 100 µM and the CC50 stood at 33.7 µM.

As for `COc1c(Cl)cc(Cl)cc1/C=C/C(=O)c1ccc(NC(=O)c2cccs2)cc1`, the IC50 is 7.91 µM, the IC90 turned out to be 16.4 µM and the CC50 was determined as 6.47 µM.

Take `COc1ccc(N=Cc2cc(Cl)ccc2O)cc1Cl`: the IC50 is 7.49 µM and the IC90 was greater than 100 µM.
